Several values for one entry are separate records, joined by “and”; a condition that tells them apart may be missing. Identical values can stand only once.
Columns and labels:
[1] = tested on: growth hormone; experiment: Simulated sustained release study (bolus vs divided oral solution): serum growth hormone; type: in vivo, human; settings: for GH Tmax: individual subjects 1-4
Experimental: This dosing regimen simulates active compound delivery by a sustained release dosage form. […] Serum concentrations of growth hormone were monitored just prior to administration of the first dose and every 20 minutes thereafter for 24 hours. Serum […] growth factor-I (IGF-I) concentrations were measured at 0, 12, and 24 hours post-first dose.
The order of treatment was defined by a randomization schedule. Following initial administration, subjects were readmitted to the clinical research facility approximately 14 days later. During the second evaluation, the subject received the treatment not used during the previous session.
Growth hormone serum concentrations were determined following administration of the bolus or divided doses. Blood samples, adequate to provide 0.5 ml of serum, were collected just prior to administration of the first dose, and every 20 minutes thereafter for 24 hours for determination of growth hormone. Specimens were collected in tubes containing no additives, and were maintained at room temperature until clotted. The serum was separated from the whole blood and frozen at −20° C. within one hour of collection.
Growth hormone quantitation of the human serum samples was conducted using luminescence measurements by means of an Immulite® system (Diagnostic Products Corporation, Los Angeles, Calif.). All analyses were performed using a hGH Immulite® kit containing hGH test units (LGH 1), hGH reagent wedge (LGH 2) and hGH adjustors (LGHL and LGHH). These kits were obtained from DPC (Diagnostic Products Corporation, Los Angeles, Calif.). In addition, hGH sample diluent (LGHZ), chemiluminescent substrate module (LSUBX), probe wash module (LPWSZ) and the necessary Immulite® accessories were obtained from DPC. For each new kit, the Immulite® system was calibrated by running two adjuster samples (LGHL and LGHH) obtained from the manufacturer, containing a […] concentration of hGH in equine serum, respectively. […] The resulting luminescence was determined by means of an Immulite® system.

[2] = Solubility and osmotic pressure of the active compound (statement); type: physicochemical

With `CN1N=C2CCN(C(=O)[C@@H](COCc3ccccc3)NC(=O)C(C)(C)N)C[C@@]2(Cc2ccccc2)C1=O.O=C(O)C(O)C(O)C(=O)O` [Compound A] the GH Tmax ([1]; 10 mg bolus, L-tartrate) was 1 h (3×) and 0.67 h, the “GH Tmax” value ([1]; 10 mg divided, in h) was 1 and the “frequency and amplitude of secondary GH peaks” value ([1]; simulated sustained release of 10 mg compared to bolus) was “increased”. For the same compound, the osmotic pressure [2] was “about 4 atmospheres” and the solubility ([2]; water) was > 150 mg/mL.
